Test results: PMC3781220 (The Journal of organic chemistry, 2010)
Where two headings read alike, the source gives them in different places.

Columns and labels:
[1] = biological target: T1, recombinant yeast squalene synthase (Saccharomyces cerevisiae, UniProt P29704); assay type: biochemical; settings: for potency ratio of 2R,3S enantiomer over 2S,3R enantiomer, absence of PPi: no added PPi
T1 sequence (P29704 1-420 limits assumed): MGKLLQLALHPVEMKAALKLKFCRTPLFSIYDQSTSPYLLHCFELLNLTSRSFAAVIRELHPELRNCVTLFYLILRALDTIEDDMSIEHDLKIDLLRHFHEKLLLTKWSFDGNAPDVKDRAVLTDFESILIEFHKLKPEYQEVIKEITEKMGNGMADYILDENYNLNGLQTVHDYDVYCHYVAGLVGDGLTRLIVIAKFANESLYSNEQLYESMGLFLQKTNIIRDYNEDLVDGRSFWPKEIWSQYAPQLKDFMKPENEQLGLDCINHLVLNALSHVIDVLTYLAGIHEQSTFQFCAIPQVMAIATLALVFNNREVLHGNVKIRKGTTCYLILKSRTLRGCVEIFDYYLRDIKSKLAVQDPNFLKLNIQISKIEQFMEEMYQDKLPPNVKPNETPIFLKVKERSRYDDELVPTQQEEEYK

[2] = biological target: T1, recombinant yeast squalene synthase; settings: cited from earlier work

Structure (SMILES): CC(C)=CCC/C(C)=C/CC/C(C)=C/COP(=O)(O)OP(=O)(O)O [FPP, (E,E)-farnesyl diphosphate, reference compound]
- Km ([1]; read-out: Km for FPP, substrate constant given with the Ki experiment): 20 µM
- S0.5 FPP ([2]; affinity of substrate for the enzyme): 19 ± 6 µM

Structure (SMILES): CC(C)=CCC/C(C)=C/CCCCN1[C@H](COP(=O)([O-])OP(=O)([O-])[O-])[C@@]1(C)CC/C=C(\C)CCC=C(C)C.CCCC[N+](CCCC)(CCCC)CCCC.CCCC[N+](CCCC)(CCCC)CCCC.CCCC[N+](CCCC)(CCCC)CCCC (relative stereo) [(2R,3S)-6-OPP, (2R,3S)-trans-[2-((E)-4,8-Dimethyl-3,7-nonadienyl)-1-((E)-6, 10-dimethyl-5,9-undecadienyl)-2-methylaziridin-3-yl]methyl Diphosphate, Tris (tetrabutylammonium) Salt]
- potency ratio of 2R,3S enantiomer over 2S,3R enantiomer, presence of PPi ([1]; 1.5 mM PPi): 4 fold
- synergistic effect of the PPi additive on inhibition ([1]; IC50 −PPi versus +PPi): almost no change
- potency ratio of 2R,3S enantiomer over 2S,3R enantiomer, absence of PPi [1]: about 16 fold
- potency ratio of 2R,3S enantiomer over 2S,3R enantiomer, absence of PPi ([1]; listed as 2R,3S enantiomer): 16 fold
- IC50 ([1]; read-out: IC50, +PPi, 1.5 mM PPi added, pH 7.2, 100 μM [3H]FPP, ± standard error): 1.17 ± 0.08 µM

Structure (SMILES): CC(C)=CCC/C(C)=C/CC/C(C)=C/C1C(COP(=O)(O)OP(=O)(O)O)C1(C)CC/C=C(\C)CCC=C(C)C (stereo in doubt) [PSPP, presqualene diphosphate]
- Ki ([2]; read-out: Ki PSPP, affinity of intermediate for the enzyme): 75 ± 20 µM
